Earlier results on one compound are cited in US20240315962A1, “EXTENDED RELEASE COMPOSITIONS COMPRISING PYRIDOSTIGMINE” (priority 2020, published 2024).

Consider `CN(C)C(=O)Oc1ccc[n+](C)c1` [pyridostigmine], for which, under “NDA #020414”, the bioavailability is reported as 10-20%. Where the note is “oral”, the elimination half-life is 3 to 5 h and the “time-to-maximum peak plasma concentration” value was 1 to 2 h.
